Results from ChEMBL document CHEMBL1156642, “Discovery of betamethasone 17alpha-carbamates as dissociated glucocorticoid receptor modulators in the rat” (Bioorg Med Chem, 2008).

System: not listed separately
Assay: Transactivation activity of glutamine synthase in rat skeletal muscle cells
Format: cell-based

First: C[C@H](NC(=O)O[C@]1(C(=O)CO)[C@@H](C)C[C@H]2[C@@H]3CCC4=CC(=O)C=C[C@]4(C)[C@@]3(F)[C@@H](O)C[C@@]21C)c1ccccc1
Second: C[C@@H](NC(=O)O[C@]1(C(=O)CO)[C@@H](C)C[C@H]2[C@@H]3CCC4=CC(=O)C=C[C@]4(C)[C@@]3(F)[C@@H](O)C[C@@]21C)c1ccccc1
The EC50 of the first is 2.7-fold lower: 0.6 nM for the first, 1.6 nM for the second. The first is the more potent here.

First: C[C@H]1C[C@H]2[C@@H]3CCC4=CC(=O)C=C[C@]4(C)[C@@]3(F)[C@@H](O)C[C@]2(C)[C@@]1(OC(=O)NC(C)(C)C)C(=O)CO
Second: C[C@H]1C[C@H]2[C@@H]3CCC4=CC(=O)C=C[C@]4(C)[C@@]3(F)[C@@H](O)C[C@]2(C)[C@@]1(OC(=O)NC(C)(C)CC(C)(C)C)C(=O)CO
The EC50 of the first is 600-fold lower: 0.37 nM for the first, 223 nM for the second.

Going from `COC(=O)[C@H](C)NC(=O)O[C@]1(C(=O)CO)[C@@H](C)C[C@H]2[C@@H]3CCC4=CC(=O)C=C[C@]4(C)[C@@]3(F)[C@@H](O)C[C@@]21C` to `CCC(C)NC(=O)O[C@]1(C(=O)CO)[C@@H](C)C[C@H]2[C@@H]3CCC4=CC(=O)C=C[C@]4(C)[C@@]3(F)[C@@H](O)C[C@@]21C` (some centres undefined), the EC50 falls from 47 nM to 0.3 nM (160-fold). The second is the more potent here.

Compared with `C[C@H]1C[C@H]2[C@@H]3CCC4=CC(=O)C=C[C@]4(C)[C@@]3(F)[C@@H](O)C[C@]2(C)[C@@]1(OC(=O)NCCC(C)(C)C)C(=O)CO`, `CCCCCNC(=O)O[C@]1(C(=O)CO)[C@@H](C)C[C@H]2[C@@H]3CCC4=CC(=O)C=C[C@]4(C)[C@@]3(F)[C@@H](O)C[C@@]21C` is 1400-fold lower in EC50: 576 nM for the first, 0.4 nM for the second. The second is the more potent here.

Target: T1, Glucocorticoid receptor (Homo sapiens, UniProt P04150)
T1 sequence (P04150 whole entry): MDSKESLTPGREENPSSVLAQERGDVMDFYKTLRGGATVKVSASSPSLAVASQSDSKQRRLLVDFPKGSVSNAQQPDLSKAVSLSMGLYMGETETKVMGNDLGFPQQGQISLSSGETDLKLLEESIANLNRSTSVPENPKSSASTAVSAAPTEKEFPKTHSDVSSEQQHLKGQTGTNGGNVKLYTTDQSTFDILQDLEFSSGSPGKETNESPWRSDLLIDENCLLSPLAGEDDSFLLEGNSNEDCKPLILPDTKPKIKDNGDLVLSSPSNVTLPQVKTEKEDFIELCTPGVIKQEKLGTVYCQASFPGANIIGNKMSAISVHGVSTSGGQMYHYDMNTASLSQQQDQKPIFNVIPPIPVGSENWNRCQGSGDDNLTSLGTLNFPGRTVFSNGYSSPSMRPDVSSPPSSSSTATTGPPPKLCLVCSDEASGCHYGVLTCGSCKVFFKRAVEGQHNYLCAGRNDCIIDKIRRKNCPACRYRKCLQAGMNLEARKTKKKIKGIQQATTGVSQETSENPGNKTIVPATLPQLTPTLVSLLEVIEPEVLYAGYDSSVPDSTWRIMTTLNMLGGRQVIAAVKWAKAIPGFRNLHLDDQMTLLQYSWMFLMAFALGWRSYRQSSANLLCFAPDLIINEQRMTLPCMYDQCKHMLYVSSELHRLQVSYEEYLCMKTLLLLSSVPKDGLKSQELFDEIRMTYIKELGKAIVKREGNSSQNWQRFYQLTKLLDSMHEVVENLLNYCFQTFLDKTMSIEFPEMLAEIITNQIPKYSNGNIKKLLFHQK
Description: Inhibition of human glucocorticoid receptor

First: C[C@H](NC(=O)O[C@]1(C(=O)CO)[C@@H](C)C[C@H]2[C@@H]3CCC4=CC(=O)C=C[C@]4(C)[C@@]3(F)[C@@H](O)C[C@@]21C)c1ccccc1
Second: C[C@@H](NC(=O)O[C@]1(C(=O)CO)[C@@H](C)C[C@H]2[C@@H]3CCC4=CC(=O)C=C[C@]4(C)[C@@]3(F)[C@@H](O)C[C@@]21C)c1ccccc1
The IC50 of the first is 4-fold lower: 1.3 nM for the first, 5.2 nM for the second. The first is the more potent here.

Compared with `C[C@H]1C[C@H]2[C@@H]3CCC4=CC(=O)C=C[C@]4(C)[C@@]3(F)[C@@H](O)C[C@]2(C)[C@@]1(OC(=O)NC(C)(C)C)C(=O)CO`, `C[C@H]1C[C@H]2[C@@H]3CCC4=CC(=O)C=C[C@]4(C)[C@@]3(F)[C@@H](O)C[C@]2(C)[C@@]1(OC(=O)NC(C)(C)CC(C)(C)C)C(=O)CO` is 2.4-fold higher in IC50: 2.4 nM for the first, 5.7 nM for the second.

Going from `COC(=O)[C@H](C)NC(=O)O[C@]1(C(=O)CO)[C@@H](C)C[C@H]2[C@@H]3CCC4=CC(=O)C=C[C@]4(C)[C@@]3(F)[C@@H](O)C[C@@]21C` to `CCC(C)NC(=O)O[C@]1(C(=O)CO)[C@@H](C)C[C@H]2[C@@H]3CCC4=CC(=O)C=C[C@]4(C)[C@@]3(F)[C@@H](O)C[C@@]21C` (some centres undefined), the IC50 falls from 28.6 nM to 0.5 nM (57-fold). The second is the more potent here.

Compared with `C[C@H]1C[C@H]2[C@@H]3CCC4=CC(=O)C=C[C@]4(C)[C@@]3(F)[C@@H](O)C[C@]2(C)[C@@]1(OC(=O)NCCC(C)(C)C)C(=O)CO`, `CCCCCNC(=O)O[C@]1(C(=O)CO)[C@@H](C)C[C@H]2[C@@H]3CCC4=CC(=O)C=C[C@]4(C)[C@@]3(F)[C@@H](O)C[C@@]21C` is 5.9-fold lower in IC50: 12.3 nM for the first, 2.1 nM for the second. The second is the more potent here.

Target: T2, Progesterone receptor (Homo sapiens, UniProt P06401)
T2 sequence (P06401 whole entry): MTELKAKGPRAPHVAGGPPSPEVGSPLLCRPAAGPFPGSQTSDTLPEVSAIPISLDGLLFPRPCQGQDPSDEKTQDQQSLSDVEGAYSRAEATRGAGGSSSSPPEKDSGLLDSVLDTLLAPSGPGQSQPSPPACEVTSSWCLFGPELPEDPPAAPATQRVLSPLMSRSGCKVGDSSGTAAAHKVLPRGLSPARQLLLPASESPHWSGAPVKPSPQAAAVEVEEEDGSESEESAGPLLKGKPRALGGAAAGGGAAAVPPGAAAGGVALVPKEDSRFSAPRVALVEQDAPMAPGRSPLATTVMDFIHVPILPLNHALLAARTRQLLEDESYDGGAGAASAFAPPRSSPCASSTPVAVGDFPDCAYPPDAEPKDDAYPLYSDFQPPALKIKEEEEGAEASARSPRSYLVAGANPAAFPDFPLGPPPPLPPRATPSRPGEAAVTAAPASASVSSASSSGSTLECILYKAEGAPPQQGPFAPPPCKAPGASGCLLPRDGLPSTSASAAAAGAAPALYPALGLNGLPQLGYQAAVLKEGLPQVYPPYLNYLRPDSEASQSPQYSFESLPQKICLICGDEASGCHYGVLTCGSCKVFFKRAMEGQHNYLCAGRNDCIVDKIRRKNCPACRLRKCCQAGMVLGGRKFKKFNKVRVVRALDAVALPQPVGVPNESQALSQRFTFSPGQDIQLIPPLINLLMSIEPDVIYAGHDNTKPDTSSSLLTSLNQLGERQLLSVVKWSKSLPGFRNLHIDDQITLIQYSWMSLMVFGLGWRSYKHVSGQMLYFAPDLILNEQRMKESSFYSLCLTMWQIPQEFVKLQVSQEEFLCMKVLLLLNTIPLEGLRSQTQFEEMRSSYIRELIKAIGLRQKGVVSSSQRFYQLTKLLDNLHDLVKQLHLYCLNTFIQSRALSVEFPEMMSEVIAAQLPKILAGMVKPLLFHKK
Assay: Inhibition of human progesterone receptor

First: C[C@H](NC(=O)O[C@]1(C(=O)CO)[C@@H](C)C[C@H]2[C@@H]3CCC4=CC(=O)C=C[C@]4(C)[C@@]3(F)[C@@H](O)C[C@@]21C)c1ccccc1
Second: C[C@H]1C[C@H]2[C@@H]3CCC4=CC(=O)C=C[C@]4(C)[C@@]3(F)[C@@H](O)C[C@]2(C)[C@@]1(OC(=O)NC(C)(C)CC(C)(C)C)C(=O)CO
The IC50 of the first is lower: 176 nM for the first, over 1000 nM for the second. The first is the more potent here.

Target: T3, Interstitial collagenase (Homo sapiens) (UniProt P03956)
T3 sequence (whole entry): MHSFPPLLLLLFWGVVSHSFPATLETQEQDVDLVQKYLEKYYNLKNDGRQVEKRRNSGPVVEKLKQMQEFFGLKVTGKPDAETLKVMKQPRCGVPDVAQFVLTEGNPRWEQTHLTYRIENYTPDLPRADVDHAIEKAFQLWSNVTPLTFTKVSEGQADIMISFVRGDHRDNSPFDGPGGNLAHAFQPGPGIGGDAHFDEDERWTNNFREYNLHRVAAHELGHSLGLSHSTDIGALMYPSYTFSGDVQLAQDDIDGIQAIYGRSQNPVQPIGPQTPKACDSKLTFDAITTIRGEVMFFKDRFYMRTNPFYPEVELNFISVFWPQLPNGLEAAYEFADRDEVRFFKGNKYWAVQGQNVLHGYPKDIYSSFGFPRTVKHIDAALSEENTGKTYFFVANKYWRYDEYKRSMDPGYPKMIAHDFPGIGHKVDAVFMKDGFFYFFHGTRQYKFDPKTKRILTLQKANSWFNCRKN
Assay: Inhibition of glucocorticoid-mediated human MMP1 expression in PMA stimulated A549 cells assessed as MMP1 protein level by ELISA relative to Dexamethasone
Format: cell-based
Parameters: scale not given: the % may be the effect or the level left

Going from `C[C@H](NC(=O)O[C@]1(C(=O)CO)[C@@H](C)C[C@H]2[C@@H]3CCC4=CC(=O)C=C[C@]4(C)[C@@]3(F)[C@@H](O)C[C@@]21C)c1ccccc1` to `C[C@@H](NC(=O)O[C@]1(C(=O)CO)[C@@H](C)C[C@H]2[C@@H]3CCC4=CC(=O)C=C[C@]4(C)[C@@]3(F)[C@@H](O)C[C@@]21C)c1ccccc1`, the Activity falls from 93% to 87.5%.

Compared with `C[C@H]1C[C@H]2[C@@H]3CCC4=CC(=O)C=C[C@]4(C)[C@@]3(F)[C@@H](O)C[C@]2(C)[C@@]1(OC(=O)NC(C)(C)C)C(=O)CO`, `C[C@H]1C[C@H]2[C@@H]3CCC4=CC(=O)C=C[C@]4(C)[C@@]3(F)[C@@H](O)C[C@]2(C)[C@@]1(OC(=O)NC(C)(C)CC(C)(C)C)C(=O)CO` is lower in Activity: 94% for the first, 80.3% for the second.

Going from `COC(=O)[C@H](C)NC(=O)O[C@]1(C(=O)CO)[C@@H](C)C[C@H]2[C@@H]3CCC4=CC(=O)C=C[C@]4(C)[C@@]3(F)[C@@H](O)C[C@@]21C` to `CCC(C)NC(=O)O[C@]1(C(=O)CO)[C@@H](C)C[C@H]2[C@@H]3CCC4=CC(=O)C=C[C@]4(C)[C@@]3(F)[C@@H](O)C[C@@]21C` (some centres undefined), the Activity falls from 107% to 97.5%.

Going from `C[C@H]1C[C@H]2[C@@H]3CCC4=CC(=O)C=C[C@]4(C)[C@@]3(F)[C@@H](O)C[C@]2(C)[C@@]1(OC(=O)NCCC(C)(C)C)C(=O)CO` to `CCCCCNC(=O)O[C@]1(C(=O)CO)[C@@H](C)C[C@H]2[C@@H]3CCC4=CC(=O)C=C[C@]4(C)[C@@]3(F)[C@@H](O)C[C@@]21C`, the Activity rises from 56.3% to 97.5%.

Organism: Rattus norvegicus
Assay: Transactivation activity of glutamine synthase in rat skeletal muscle cells relative to Dexamethasone
Format: cell-based

First: C[C@H](NC(=O)O[C@]1(C(=O)CO)[C@@H](C)C[C@H]2[C@@H]3CCC4=CC(=O)C=C[C@]4(C)[C@@]3(F)[C@@H](O)C[C@@]21C)c1ccccc1
Second: C[C@@H](NC(=O)O[C@]1(C(=O)CO)[C@@H](C)C[C@H]2[C@@H]3CCC4=CC(=O)C=C[C@]4(C)[C@@]3(F)[C@@H](O)C[C@@]21C)c1ccccc1
The Activity of the first is lower: 49% for the first, 92% for the second.

First: C[C@H]1C[C@H]2[C@@H]3CCC4=CC(=O)C=C[C@]4(C)[C@@]3(F)[C@@H](O)C[C@]2(C)[C@@]1(OC(=O)NC(C)(C)C)C(=O)CO
Second: C[C@H]1C[C@H]2[C@@H]3CCC4=CC(=O)C=C[C@]4(C)[C@@]3(F)[C@@H](O)C[C@]2(C)[C@@]1(OC(=O)NC(C)(C)CC(C)(C)C)C(=O)CO
The Activity of the first is higher: 64% for the first, 50% for the second.

Going from `COC(=O)[C@H](C)NC(=O)O[C@]1(C(=O)CO)[C@@H](C)C[C@H]2[C@@H]3CCC4=CC(=O)C=C[C@]4(C)[C@@]3(F)[C@@H](O)C[C@@]21C` to `CCC(C)NC(=O)O[C@]1(C(=O)CO)[C@@H](C)C[C@H]2[C@@H]3CCC4=CC(=O)C=C[C@]4(C)[C@@]3(F)[C@@H](O)C[C@@]21C` (some centres undefined), the Activity falls from 103% to 54%.

First: C[C@H]1C[C@H]2[C@@H]3CCC4=CC(=O)C=C[C@]4(C)[C@@]3(F)[C@@H](O)C[C@]2(C)[C@@]1(OC(=O)NCCC(C)(C)C)C(=O)CO
Second: CCCCCNC(=O)O[C@]1(C(=O)CO)[C@@H](C)C[C@H]2[C@@H]3CCC4=CC(=O)C=C[C@]4(C)[C@@]3(F)[C@@H](O)C[C@@]21C
The Activity of the first is higher: 61.8% for the first, 60.3% for the second.
